In patent US20050020544A1, “Bicyclic CB2 cannabinoid receptor ligands” (priority 2002, published 2005):

Experiments:
[1] = test system: TNF-α secretion from activated RAW 264.7 macrophages; test: Inhibition of TNF-α in LPS activated macrophages (ELISA); format: cell-based, mouse; conditions: for effect on TNF-α secretion: doses up to 20 μM
Text: (§1) The technique used to quantify the amount of a given protein in a liquid sample, either tissue culture supernatant or body fluid, is based on Enzyme Linked ImmunoSorbent Assay (ELISA) methodology. Either commercially available or established in house, the assay is based on the capture of the protein of interest by specific antibodies bound to the bottom of an ELISA plate well. Unbound material is washed away, the captured protein is then exposed to a secondary antibody generally labeled with horseradish peroxidase (HRP) or alkaline phosphatase (ALP). Again the unbound material is washed away, the samples are then incubated with the appropriate substrate yielding a calorimetric reaction. The reaction is stopped and reading is performed in a spectrophotometer at the appropriate wavelength. Samples are tested at least in duplicate and the appropriate standard curve, consisting of serial dilutions of the recombinant target protein, is incorporated on each plate. Concentration of the protein in the sample is calculated from the standard curve.
(§2) RAW 264.7 macrophages, a mouse cell line (ATCC # TIB-71), were grown in Dulbecco's modified Eagle's medium (DMEM) with 4 mM L-glutamine adjusted to contain 1.5 g/L sodium bicarbonate, 4.5 g/L glucose, and 10% heat inactivated fetal bovine serum. Cells were grown in tissue culture flasks and seeded at appropriate density into 24 wells tissue culture plates. 0.5×10^6 Raw cells in one milliliter were stimulated with 2 μg/ml Lipopolysaccharide E. coli 055:B5 (DIFCO Laboratories). The mouse macrophages were pre-treated for one hour with controls or 10 μM of bicyclic CB2 ligands and later on activated with LPS. Dexamethasone was used as a positive control at 50 nM. Supernatant was collected 4 hours (for PGE2) and 24 hours (for IL-1β and TNF-α) after activation, and the levels of the inflammatory agent under study were determined by ELISA, as previously described. Inhibition was calculated versus vehicle treated cells.
The activation of the macrophages is performed as previously described. The levels of TNF-α are measured in an ELISA assay as previously described. Inhibition is calculated versus vehicle treated cells.

[2] = test system: PGE2 secretion from activated RAW 264.7 macrophages; test: Inhibition of PGE2 in LPS activated macrophages (ELISA); format: cell-based, mouse; conditions: 4 hours after activation, doses 1 μM to 20 μM
Text: as §1, §2
The activation of the macrophages is performed as previously described. The levels of PGE2 are measured in an ELISA assay as previously described. Inhibition is calculated versus vehicle treated cells. […] Results are depicted in FIG. 2B.

[3] = molecular target: human CB2 receptor (Homo sapiens, UniProt P34972); test: biochemical; format: binding; set-up: purchased Perkin Elmer/NEN; host or cells: CHO cells, stably transfected (membranes); conditions: for CB2/CB1 affinity ratio: IC50 CB1/IC50 CB2; for IC50: displacement of [3H]WIN 55212-2, hCB2 CHO membranes
Sequence of human CB2 receptor (P34972 whole entry): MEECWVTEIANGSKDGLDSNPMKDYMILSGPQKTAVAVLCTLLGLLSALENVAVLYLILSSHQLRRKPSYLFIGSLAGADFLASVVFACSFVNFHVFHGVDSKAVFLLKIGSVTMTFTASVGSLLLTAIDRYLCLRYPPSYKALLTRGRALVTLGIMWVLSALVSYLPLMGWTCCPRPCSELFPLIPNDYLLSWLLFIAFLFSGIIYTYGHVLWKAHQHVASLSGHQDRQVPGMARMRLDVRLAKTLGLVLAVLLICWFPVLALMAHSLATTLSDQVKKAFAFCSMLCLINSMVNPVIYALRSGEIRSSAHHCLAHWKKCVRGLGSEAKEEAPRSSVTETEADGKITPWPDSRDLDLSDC
Procedure, shortened: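 Displacement of 0.8 nM [^3H]WIN 55212-2 from hCB2-transfected CHO membranes (25 μg protein) was measured in HEPES buffer pH 7.4 with MgCl2, EDTA and BSA, 40 min at 30 °C. Non-specific binding was defined with 10 μM CP 55940, then samples were filtered and β-counted. IC50 was extrapolated from log concentration vs % binding.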

[4] = test system: Male Sprague Dawley rats; test: Inflammatory pain: carrageenan paw edema in rats, thermal and mechanical stimuli; format: in vivo, rat; conditions: for ΔForce (tactile stimulus) / ΔLT (thermal stimulus): three hours
Procedure, shortened: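 Male Sprague Dawley rats (~200 g) with carrageenan-inflamed paw, tested before and 3 h after injection. Thermal withdrawal latency measured by Hargreaves plantar test at intensity 50, and mechanical threshold by dynamic plantar aesthesiometer. Values are inflamed minus non-inflamed paw differences at 0 and 3 h (ΔLT, ΔForce).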

Row | Compound | effect on TNF-α secretion [1] | IC50 [2] [µM] | CB2/CB1 affinity ratio [3] | IC50 [3] [µM] | reversal of analgesic activity against thermal and mechanical stimuli by antagonists ([4]; 5 mg/kg i.p. SR141716A or SR144528, 15 minutes before carrageenan and compound) | ΔForce (tactile stimulus) ([4]; 10 mg/kg i.p.) [g] | ΔLT (thermal stimulus) ([4]; 10 mg/kg i.p.) [s] | IC50 ([2]; Mus musculus, RAW264.7) [µM] | ΔForce (tactile stimulus) ([4]; 2 mg/kg i.p.) [g] | reduction of TNF-α secretion ([1]; 10 μM) [%] | IC50 ([1]; Mus musculus, RAW264.7) [µM] | ΔForce (tactile stimulus) ([4]; 8 mg/kg i.p.) [g] | ΔLT (thermal stimulus) ([4]; 8 mg/kg i.p.) [s] | IC50 to CB2, fold lower than its (+) enantiomer ([3]; compound A versus (+) enantiomer) [fold]
1 | CCCCC(C)(C)c1cc(O)c(C2CC(=O)C3CC2C3(C)C)c(OC(=O)CCC(=O)O)c1 (single isomer, unassigned; (-)) [Compound Y, (−)-4-{4-[1,1-Dimethyl-pentyl]-2-succinate-6-hydroxy-phenyl}-6,6-dimethyl-bicyclo[3.1.1]heptan-2-one] | none of them did significantly affect TNF-α secretion | 7 | 42 | 0.0074 |  |  |  |  |  |  |  |  |  | 
2 | CCCCCCC(C)(C)c1cc(O)c([C@H]2CC(=O)[C@H]3C[C@@H]2C3(C)C)c(OC(=O)CCC(=O)O)c1 [Compound R, (−)-4-{4-[1,1-Dimethyl-heptyl]-2-succinate-6-hydroxy-phenyl}-6,6-dimethyl-bicyclo[3.1.1]heptan-2-one] | none of them did significantly affect TNF-α secretion |  | 34 | 0.0012 | not reversed by any of the antagonists | 4 | 0 | 9 |  |  |  |  |  | 
3 | CCCCC(C)(C)c1cc(O)c(C2CC(=O)C3CC2C3(C)C)c(O)c1 (single isomer, unassigned; (-)) [Compound L, (−)-4-[4(1,1-Dimethyl-pentyl)-2,6-dihydroxy-phenyl]-6,6-dimethyl-bicyclo[3.1.1]heptan-2-one] | none of them did significantly affect TNF-α secretion |  | 117 | 0.0038 |  |  |  | 7 | 11 |  |  |  |  | 
4 | CCCCCCC(C)(C)c1cc(O)c(C2CC(=O)C3CC2C3(C)C)c(O)c1 (single isomer, unassigned; (-)) [Compound A, (−)-4-[4-(1,1-Dimethyl-heptyl)2,6-dihydroxy-phenyl]-6,6-dimethyl-bicyclo[3.1.1)heptan-2-one] |  |  |  | 0.001 |  |  |  | 9 |  | 53 | 10 | 2 | 1.5 | 10
